Earlier results, collected in patent US20030157061A1, “Combinations of a cyclooxygenase-2 selective inhibitor and a TNFalpha antagonist and therapeutic uses therefor” (Pharmacia Corporation, priority 2001, published 2003).

System: fibroblast growth factor-induced corneal angiogenesis
Settings: rats

Cc1ccc(-c2cc(C(F)(F)F)nn2-c2ccc(S(N)(=O)=O)cc2)cc1 [Celecoxib, 4-[5-(4-methylphenyl)-3-(trifluoromethyl)-1H-pyrazol-1-yl]benzenesulfonamide]
inhibition of fibroblast growth factor-induced corneal angiogenesis: potent inhibition
